Test results reported in patent US20230233696A1, “TRIANTENNARY N-ACETYLGALACTOSAMINE MODIFIED HYDROXYL POLYAMIDOAMINE DENDRIMERS AND METHODS OF USE THEREOF” (Ashvattha Therapeutics, Inc., priority 2019, published 2023).

Assays:
[1] = target: CSF1R (Homo sapiens, UniProt P07333); assay: binding affinity towards CSF1R
[2] = system: NASH mice; assay: in vivo efficacy in STAM mouse model of non-alcoholic steatohepatitis; parameters: species or system C57BL/6 mice
Protocol: Pathogen-free 14 day-pregnant C57BL/6 mice were obtained from Japan SLC, Inc.(Japan); NASH was established in male mice by a single subcutaneous injection of 200 μg streptozotocin (STZ, Sigma, USA) 2 days after birth and feeding with a high fat diet (CLEA Japan Inc., Japan) ad libitum after 4 weeks of age (day 28 ± 2). NASH mice were randomized into 8 groups of 8 mice and 2 groups of 4 mice at 6 weeks of age (day 42 ± 2) the day before the start of treatment based on their body weight. Littermate control mice without STZ priming (n=8) were fed with normal diet ad libitum and set up for control purpose (see below for details on grouping). […] Samples would not be collected from euthanized animals. Individual body weight was measured daily during the treatment period. […] Four NASH mice were intraperitoneally administered vehicle supplemented with D-Cy5 at a dose of 50 mg/kg single shot at 6 weeks of age; • Group 11 (D-Cy5-9 wks): Four NASH mice were intraperitoneally administered vehicle supplemented with D-Cy5 at a dose of 50 mg/kg single shot at 9 weeks of age. Mice in group 10 and 11 were sacrificed at 6 and 9 weeks of age 48 hours after the administration. Mice in group 1 - 9 were sacrificed at 9 weeks of age for the following assay, group 10 and 11 were sacrificed at 6 and 9 weeks of age for the following assays. Individual liver weight were measured and liver-to-body weight ratio were calculated. Non-fasting serum ALT levels were quantified by FUJI DRI CHEM (Fujifilm, Japan). Liver triglyceride levels were quantified by Triglyceride E-test kit (FUJIFUILM Wako Pure Chemical Corporation, Japan). HE staining and estimation of NAFLD Activity score was carried out using routine methods. Sirius-red staining and estimation of the percentage of fibrosis area was also calculated. After completion of the in-life portion of the study, the following samples were collected for further analyses or shipping. […] Dissect the animal and collect the tissue samples (right and left kidneys, liver) in sequential order. Sample thickness was less than approximately 5 mm to ensure proper fixation, with a flat surface across the area of interest. Put the samples into 4% NBF for fixation immediately. Fix the samples in 4% NBF overnight at room temperature.

[3] = water solubility of dendrimer conjugates
[4] = in vitro drug release under plasma (pH7.4, PBS) and intracellular conditions (pH5.5, esterase); format: in vitro ADME; details: intracellular conditions (pH5.5, esterase), 18 days
Protocol: The drug release profile of both the conjugates was evaluated under plasma (pH7.4, PBS) and intracellular conditions (pH5.5, esterase).

[5] = target: T1, human angiotensin II AT1 receptor (Homo sapiens, UniProt P30556); assay: human angiotensin II AT1 receptor (antagonist radioligand) binding assay; details: [125I][Sar1-Ile8] angiotensin-II radioligand, cell membrane homogenates
T1 sequence (P30556 1-359): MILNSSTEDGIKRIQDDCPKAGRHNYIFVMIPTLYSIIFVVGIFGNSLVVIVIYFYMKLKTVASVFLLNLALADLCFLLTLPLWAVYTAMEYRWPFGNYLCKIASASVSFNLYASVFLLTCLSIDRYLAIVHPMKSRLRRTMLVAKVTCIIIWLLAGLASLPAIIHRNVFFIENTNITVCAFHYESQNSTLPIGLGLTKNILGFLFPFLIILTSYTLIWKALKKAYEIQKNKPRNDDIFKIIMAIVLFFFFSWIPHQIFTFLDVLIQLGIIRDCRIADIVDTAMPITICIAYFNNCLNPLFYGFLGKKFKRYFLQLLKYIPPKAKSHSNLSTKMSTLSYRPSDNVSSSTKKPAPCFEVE
Protocol: Cell membrane homogenates (8 µg protein) are incubated for 120 min at 37° C. with 0.05 nM [125I][Sar1-Ile8] angiotensin-II in the absence or presence of the test compounds in a buffer containing 50 mM Tris-HCl (pH 7.4), 5 mM MgCl2, 1 mM EDTA and 0.1% BSA. Nonspecific binding is determined in the presence of 10 µM angiotensin II. Following incubation, the samples solution are filtered rapidly under vacuum through glass fiber filters (GF/B, Packard) presoaked with 0.3% PEI and rinsed several times with ice-cold 50 mM Tris-HCl using a 96-sample cell harvester (Unifilter, Packard). The filters are dried then counted for radioactivity in a scintillation counter (Topcount, Packard) using a scintillation cocktail (Microscint 0, Packard).
The results are expressed as a percent inhibition of the control radioligand specific binding. Saralasin is used as the standard reference compound, which is tested in each experiment at several concentrations to obtain a competition curve from which its IC50 is calculated.

[6] = NASH mice, significantly compared to free OCA and vehicle control (p < 0.05, n=8)

CSF1R, sequence (P07333 20-972, species assumed): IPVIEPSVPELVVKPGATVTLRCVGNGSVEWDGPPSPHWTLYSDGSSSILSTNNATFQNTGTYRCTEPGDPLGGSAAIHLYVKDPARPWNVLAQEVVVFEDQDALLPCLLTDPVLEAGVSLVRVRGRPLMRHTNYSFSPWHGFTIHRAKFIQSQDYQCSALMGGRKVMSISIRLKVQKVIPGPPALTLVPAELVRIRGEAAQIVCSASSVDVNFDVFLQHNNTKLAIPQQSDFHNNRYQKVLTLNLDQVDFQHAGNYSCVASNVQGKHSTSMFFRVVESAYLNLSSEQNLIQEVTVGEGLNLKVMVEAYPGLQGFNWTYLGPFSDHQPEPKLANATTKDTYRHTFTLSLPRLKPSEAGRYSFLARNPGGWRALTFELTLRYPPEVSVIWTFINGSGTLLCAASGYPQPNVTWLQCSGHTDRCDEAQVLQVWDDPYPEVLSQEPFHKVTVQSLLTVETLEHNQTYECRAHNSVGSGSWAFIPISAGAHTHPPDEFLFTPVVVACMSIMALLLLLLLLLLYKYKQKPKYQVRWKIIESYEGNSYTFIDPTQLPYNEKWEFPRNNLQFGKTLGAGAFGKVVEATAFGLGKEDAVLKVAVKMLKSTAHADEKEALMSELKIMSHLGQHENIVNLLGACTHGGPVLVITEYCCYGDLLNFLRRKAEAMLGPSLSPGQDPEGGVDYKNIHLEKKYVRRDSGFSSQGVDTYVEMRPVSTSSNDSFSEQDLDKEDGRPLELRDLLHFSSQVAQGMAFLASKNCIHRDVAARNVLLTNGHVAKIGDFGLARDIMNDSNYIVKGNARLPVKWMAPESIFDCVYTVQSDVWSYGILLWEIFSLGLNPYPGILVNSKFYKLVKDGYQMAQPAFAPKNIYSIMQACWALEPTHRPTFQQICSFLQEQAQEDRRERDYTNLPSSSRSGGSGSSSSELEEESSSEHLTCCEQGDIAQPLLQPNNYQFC

In the case of `Cc1ccc(NC(=O)c2ccc(CN3CCN(CCOCCOCCOCCN=[N+]=[N-])CC3)c(C(F)(F)F)c2)cc1NC(=O)c1cccc(-c2cnn(C)c2)c1` [CSF1R-E analogue 1], the Kd [1] is reported as about 13 nM.

In the case of `CCCc1nc2c(C)cc(-c3nc4ccccc4n3C)cc2n1Cc1ccc(-c2ccccc2C(=O)O)cc1` [Telmisartan, reference compound], the liver weight ([2]; NASH mice at nine weeks of age, compared to vehicle-treated NASH mice) is reported as “reduce liver weight”.

For “dendrimer-GalNAc (4-5)-telmisartan amide (6-7) [D-Tel]”, the water solubility [3] was 60 to 70 mg/mL and the drug release [4] was “less than 10%”.

With “dendrimer-GalNAc(4-5)-Obeticholic acid conjugate (6-7) [D-OCA]” the “liver function (biochemical analysis)” value ([2]; NASH mice) was “improved liver function”, the NAFLD score [2, 6] was “decreases” and the hepatocyte ballooning [2, 6] was “decreases”. For the same compound, the liver fibrosis [2, 6] was “decreases”, the fibrosis score ([2]; high dose D-OCA (315 mg/kg i.p. every other day), compared to free OCA group) was “improved reduction” and the stenosis score ([2]; low dose D-OCA (63 mg/kg i.p. every other day)) was “significant reduction”.

Work on “dendrimer-triantennary GalNAc(4-5)-telmisartan (7-8) [D-TelB]” yielded a drug release [4] of 94%.

Work on “telmisartan-PEG3-amide azide [Telmisartan amide linker]” yielded a Kd [5] of 74.2 nM.

“telmisartan-ester-PEG4 azide [Telmisartan ester linker]” showed a Kd [5] of 28.5 nM.
